Holding throughout (assay type): cell-based
The target in one assay is T1, CDK9 (Homo sapiens, UniProt P50750).
T1 construct: host or cells: HEK293-CDK9-Hibit
Description: HiBit Assay Protocol for CDK9 (HIBIT protein quantification, degradation). Particulars: HEK293-CDK9-Hibit cells, compound treatment for 6 hours; for DC50: ABS DC50; for Dmax: read-out: CDK9 HIBIT Protein Quantification Maximum. In a few lines:
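HEK293 cells carrying HiBiT-tagged CDK9 treated 6 h with compounds in a 3-fold, 10-point dilution series. CDK9 level read by lytic Nano-Glo HiBiT/LgBiT luminescence and normalized to 0.1% DMSO (high) and medium-only (low) controls. DC50 from curve fitting.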

Assay [1] has as its target T2, CCNE1 (Homo sapiens, UniProt P24864+P24941).
T2 construct: host or cells: HEK293-CCNE1-Hibit
The assay can be described thus: HiBit Assay Protocol for CCNE1 (HIBIT protein quantification, degradation). Particulars: HEK293-CCNE1-Hibit cells, compound treatment for 6 hours, ABS DC50. In short, it runs like this: (§1)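 HEK293 cells expressing HiBiT-tagged CCNE1 were seeded overnight, then treated 6 h with a 3-fold, 10-point compound dilution series. HiBiT levels were read by lytic LgBiT luminescence and normalised to DMSO-only (high) and medium-only (low) controls. DC50 was derived by curve fitting.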
Background: With HiBiT, luminescence reflects the tagged protein that the partner subunit can reach.

Assay [2] concerns the target T3, CCNE1 (Homo sapiens, UniProt P24864).
T3 construct: host or cells: HEK293-CCNE1-Hibit
Described as above. To be noted: HEK293-CCNE1-Hibit cells, compound treatment for 6 hours. In a few lines: as §1

The target in a further assay is T4, CDK2 (Homo sapiens, UniProt P24941).
T4 construct: host or cells: HEK293-CDK2-Hibit
The assay can be described thus: HiBit Assay Protocol for CDK2 (HIBIT protein quantification, degradation). Particulars: HEK293-CDK2-Hibit cells, compound treatment for 6 hours; for DC50: ABS DC50. In short, it runs like this: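 HEK293 cells expressing HiBiT-tagged CDK2 were seeded overnight, then treated 6 h with a 3-fold, 10-point compound dilution series. CDK2 levels were read as luminescence after lytic HiBiT/LgBiT detection, normalised to DMSO-only and medium-only controls, and DC50 derived by curve fitting.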

Read-outs that look alike come from different tables or passages of the source.

The DC50 is the midpoint of the concentration-degradation curve. The low end stands for a more potent degrader, the high end for a less potent degrader.

T1 sequence (P50750 whole entry): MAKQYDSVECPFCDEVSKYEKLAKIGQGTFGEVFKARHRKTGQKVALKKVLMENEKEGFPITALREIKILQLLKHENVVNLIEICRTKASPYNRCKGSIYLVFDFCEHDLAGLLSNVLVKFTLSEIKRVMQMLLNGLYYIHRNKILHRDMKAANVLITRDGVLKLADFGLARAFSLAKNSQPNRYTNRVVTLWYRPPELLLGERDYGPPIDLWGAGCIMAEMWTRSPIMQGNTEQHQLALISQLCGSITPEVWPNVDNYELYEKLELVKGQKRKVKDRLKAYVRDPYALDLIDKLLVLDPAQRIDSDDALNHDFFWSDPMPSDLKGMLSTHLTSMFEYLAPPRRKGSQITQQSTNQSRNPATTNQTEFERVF
T3 sequence (P24864 whole entry): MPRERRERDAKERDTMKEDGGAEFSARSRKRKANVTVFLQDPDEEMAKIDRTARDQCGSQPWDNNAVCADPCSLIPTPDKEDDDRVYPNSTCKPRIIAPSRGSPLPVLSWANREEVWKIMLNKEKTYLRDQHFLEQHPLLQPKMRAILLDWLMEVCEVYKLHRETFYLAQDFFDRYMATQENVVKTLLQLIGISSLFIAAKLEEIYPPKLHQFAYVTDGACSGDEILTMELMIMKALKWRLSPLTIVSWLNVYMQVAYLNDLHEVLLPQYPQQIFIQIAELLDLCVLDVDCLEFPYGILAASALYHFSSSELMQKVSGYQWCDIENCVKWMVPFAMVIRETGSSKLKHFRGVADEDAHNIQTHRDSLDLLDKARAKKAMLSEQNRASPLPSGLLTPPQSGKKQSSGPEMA
T2 sequence (P24864 whole entry, one chain of several): as the sequence (P24864 whole entry) above

In the case of `O=C1CCC(N2Cc3cc(N4CCN(CC5CCN(c6cccc(S(=O)(=O)c7ccc(Nc8ncc9c(n8)N([C@@H]8CCC[C@@H](O)C8)C(=O)C98CC8)cc7)c6)CC5)CC4)ccc3C2=O)C(=O)N1` (stereo partly drawn) [Compound 126, 3-{5-[4-({1-[3-(4-{7′-[(1R,3R)-3-hydroxycyclohexyl]-6′-oxospiro [cyclopropane-1,5′-pyrrolo[2,3-d]pyrimidin]-2′-ylamino}benzenesulfonyl)phenyl]piperidin-4-yl}methyl)piperazin-1-yl]-1-oxo-3H-isoindol-2-yl}piperidine-2,6-dione], at CDK9, it took 33.4 nM to reach half-maximal degradation (DC50) and the Dmax turned out to be 84%. The compound also had a DC50 on CCNE1 [1] of 29.6 nM. In addition, at CCNE1 [2], the “CCNE1 HIBIT Protein Quantification Maximum” value is given as 71%. In addition, at CDK2, the “CDK2 HIBIT Protein Quantification Maximum” value came to 66% and the DC50 was determined as 6 nM.

Regarding `CN(CCCN1CCC(c2cccc3c2n(C)c(=O)n3C2CCC(=O)NC2=O)CC1)S(=O)(=O)N1CCC(Nc2ncc3c(n2)N([C@@H]2CCC[C@@H](O)C2)C(=O)C32CC2)CC1` (stereo partly drawn) [Compound 131, N-(3-{4-[1-(2,6-Dioxopiperidin-3-yl)-3-methyl-2-oxo-1,3-benzodiazol-4-yl]piperidin-1-yl}propyl)-4-{7′-[(1R,3R)-3-hydroxycyclohexyl]-6′-oxospiro[cyclopropane-1,5′-pyrrolo[2,3-d]pyrimidin]-2′-ylamino}-N-methylpiperidine-1-sulfonamide], the Dmax at CDK9 (6 h) stood at 56%. The half-maximal degradation concentration (DC50) on CDK9 came out at 69.2 nM; at CCNE1 [1], 19.9 nM; on CDK2 it was 21.9 nM. Further, the “CCNE1 HIBIT Protein Quantification Maximum” value at CCNE1 [2] was 63%. Further, the “CDK2 HIBIT Protein Quantification Maximum” value at CDK2 worked out at 83%.

With `C[C@H](c1cccc(S(=O)(=O)N2CCC(Nc3ncc4c(n3)N([C@@H]3CCC[C@@H](O)C3)C(=O)C43CC3)CC2)c1)N1CCC(c2ccc3c(N4CCC(=O)NC4=O)nn(C)c3c2)CC1` [Compound 151, 1-(6-{1-[(1R)-1-[3-(4-{7′-[(1R,3R)-3-hydroxycyclohexyl]-6′-oxospiro[cyclopropane-1,5′-pyrrolo[2,3-d]pyrimidin]-2′-ylamino}piperidin-1-ylsulfonyl)phenyl]ethyl]piperidin-4-yl}-1-methylindazol-3-yl)-1,3-diazinane-2,4-dione], the Dmax on CDK9 (6 h) amounted to 3%. Besides, it took 78.5 nM to reach half-maximal degradation on CCNE1 [1] (DC50). The “CCNE1 HIBIT Protein Quantification Maximum” value at CCNE1 [2] is 69%. At CDK2, the “CDK2 HIBIT Protein Quantification Maximum” value was 80% and the DC50 turned out to be 3.31 nM.

With `Cn1nc(N2CCC(=O)NC2=O)c2ccc(C3CCN(Cc4cccc(S(=O)(=O)N5CC[C@@H](Nc6ncc7c(n6)N([C@@H]6CCC[C@@H](O)C6)C(=O)C76CC6)[C@H](F)C5)c4)CC3)cc21` [Compound 158], the Dmax at CDK9 (6 h) came to 13%. For the same compound, the DC50 on CCNE1 [1] turned out to be 5.96 nM; at CDK2, 2.64 nM. Besides, at CCNE1 [2], the “CCNE1 HIBIT Protein Quantification Maximum” value was determined as 56%. The “CDK2 HIBIT Protein Quantification Maximum” value on CDK2 was 80%.

Consider `Cc1c(CN2CCC(c3ccc4c(N5CCC(=O)NC5=O)nn(C)c4c3)CC2)cccc1S(=O)(=O)N1CCC(Nc2ncc3c(n2)N([C@@H]2CCC[C@@H](O)C2)C(=O)C32CC2)CC1` [Compound 159, 1-[6-(1-{[3-(4-{7′-[(1R,3R)-3-Hydroxycyclohexyl]-6′-oxospiro [cyclopropane-1,5′-pyrrolo[2,3-d]pyrimidin]-2′-ylamino}piperidin-1-ylsulfonyl)-2-methylphenyl]methyl}piperidin-4-yl)-1-methylindazol-3-yl]-1,3-diazinane-2,4-dione], for which the Dmax at CDK9 (6 h) turned out to be 49%. Further, the half-maximal degradation concentration (DC50) on CCNE1 [1] is 5.99 nM; at CDK2, 2.83 nM. In addition, at CCNE1 [2], the “CCNE1 HIBIT Protein Quantification Maximum” value came out at 54%. The “CDK2 HIBIT Protein Quantification Maximum” value at CDK2 is reported as 68%.

For `C[C@@H](C1CC1)N1C(=O)C2(CC2)c2cnc(NC3CCN(S(=O)(=O)c4cccc(CN5CCC(c6ccc7c(N8CCC(=O)NC8=O)nn(C)c7c6)CC5)c4)CC3)nc21` [Compound 164, 1-[6-(1-{[3-(4-{7′-[(1S)-1-Cyclopropylethyl]-6′-oxospiro[cyclopropane-1,5′-pyrrolo[2,3-d]pyrimidin]-2′-ylamino}piperidin-1-ylsulfonyl)phenyl]methyl}piperidin-4-yl)-1-methylindazol-3-yl]-1,3-diazinane-2,4-dione], the Dmax at CDK9 (6 h) stood at 12%. This compound returned a half-maximal degradation concentration (DC50) at CCNE1 [1] of 6.18 nM. The “CCNE1 HIBIT Protein Quantification Maximum” value at CCNE1 [2] was found to be 54%. For the same compound, at CDK2, the “CDK2 HIBIT Protein Quantification Maximum” value was determined as 85% and the 50% degradation concentration (DC50) is 2.63 nM.

For `CC1CN(Cc2cccc(S(=O)(=O)N3CCC(Nc4ncc5c(n4)N([C@@H]4CCC[C@@H](O)C4)C(=O)C54CC4)CC3)c2)CCC1c1ccc2c(N3CCC(=O)NC3=O)nn(C)c2c1` (stereo partly drawn) [Compound 182, 1-[6-(1-{[3-(4-{7′-[(1R,3R)-3-Hydroxycyclohexyl]-6′-oxospiro[cyclopropane-1,5′-pyrrolo[2,3-d]pyrimidin]-2′-ylamino}piperidin-1-ylsulfonyl)phenyl]methyl}-3-methylpiperidin-4-yl)-1-methylindazol-3-yl]-1,3-diazinane-2,4-dione], the Dmax at CDK9 (6 h) was 46%. Besides, the DC50 at CCNE1 [1] is 8.09 nM. The “CCNE1 HIBIT Protein Quantification Maximum” value at CCNE1 [2] turned out to be 52%. On CDK2, the “CDK2 HIBIT Protein Quantification Maximum” value turned out to be 82% and half-maximal degradation (DC50) was put at 4.8 nM.

The record behind these values is patent US20260070917A1, “CYCLIN DEPENDENT KINASE DEGRADERS AND METHODS OF USE THEREOF” (Differentiated Therapeutics Inc, priority 2023, published 2026).
